Measured values from patent EP0044495B1, “16-Beta ethyl steroids, compositions containing them and process for their preparation” (SCHERING AKTIENGESELLSCHAFT, priority 1980, dated 1982).

System: Samenblasen- und Prostatagewichts von Ratten
Assay: Antiandrogenic effect: inhibition of the testosterone propionate-induced increase in seminal vesicle and prostate weight of rats after subcutaneous administration
Assay type: in vivo
Conditions: for Testosteronpropionat-Hemmung Prostata / Testosteronpropionat-Hemmung Samenblase: rats, subcutaneous administration, Dosis 0,3 mg/Tag per animal; for Testosteronpropionat-Hemmung Prostata: prostate weight; for Testosteronpropionat-Hemmung Samenblase: seminal vesicle weight
Source text: Die neuen Verbindungen der allgemeinen Formel 1 besitzen starke antiandrogene Wirkung.

Row | Structure (SMILES) | Testosteronpropionat-Hemmung Prostata | Testosteronpropionat-Hemmung Samenblase | antiandrogene Wirkung (result in words, comparison of A with B at 0,3 mg pro Tier und Tag, or general statement)
1 | CC[C@H]1C[C@H]2[C@@H]3CCC4=CC(=O)CCC4=C3CC[C@]2(C)[C@H]1O [A, 16ß-Ethyl-17ß-hydroxy-4,9(10)-estradien-3-on] | 18% | 34% | signifikant wirksamer
2 | CC[C@H]1C[C@H]2[C@@H]3CCC4=CC(=O)CC[C@@H]4[C@H]3CC[C@]2(C)[C@H]1O [B, 16ß-Ethyl-17ß-hydroxy-4-estren-3-on, reference compound] | 0% | 13% | 
